Test results published in US20240358693A1, “METHODS OF TREATING PAIN” (Aisa Pharma, Inc., priority 2023, published 2024).

Tested on: participants with SSc-RP
Experiment: Scleroderma Health Assessment Questionnaire (SHAQ): disability indices and visual analog scales
Type: in vivo, human
Conditions: Day 12
Text: The standard, validated, patient reported outcome measures tool for SSc patients, the Scleroderma Health Assessment Questionnaire (SHAQ), will be used to assess the participant qualify of life. Details are attached in the Appendix. The participant quality of life will be scored, and a disability index calculated for each questionnaire completed by the patient at Screening and each in-clinic visit. The absolute change in participant quality of life from baseline to the end of each dosing period will be calculated similar to frequency data as before.
The SHAQ includes a Raynaud's VAS, which will be reported at screening and each in-clinic visit. The absolute change in Raynaud-VAS, assessed by the participants response to the SHAQ question ‘In the past 7 days, how much have your Raynaud's interfered with your daily activities?’ at baseline and the end of each dosing period will be calculated similar to frequency data as before.
The SHAQ is used to calculate a Disability Index to assess the participant qualify of life. The eight categories assessed by the Disability Index are 1) dressing and grooming, 2) arising, 3) eating, 4) walking, 5) hygiene, 6) reach, 7) grip, and 8) common daily activities. For each of these categories, patients report the amount of difficulty they have in performing two or three specific activities.
There are four possible responses for the Disability Index questions: • Without any difficulty=0 • With some difficulty=1 • With much difficulty=2 • Unable to do=3. • The highest score reported by the patient for any component question of the eight categories determines the score for that category. • If a component question is left blank or the response is too ambiguous to assign a score, then the score for that category is determined by the remaining completed question(s). • If all component questions are blank or if more than one answer is given, then follow up with the respondent is required. • If the respondent's mark is between the response columns, then move it to the closest one. If it's directly between the two, move it to the higher one.
Each of the disability items on the SHAQ has a companion aids/devices variable that is used to record what type(s) of assistance, if any, the participant uses for his/her usual activities. These variables (see below) are coded as follows: • 0=No assistance is needed. • 1=A special device is used by the patient in his/her usual activities. • 2=The patient usually needs help from another person. • 3=The patient usually needs BOTH a special device AND help from another person.
The scoring variables and scoring rules permit the computation of two disability indices, the Standard Disability Index and the Alternative Disability Index.
This question results in a new set of category scores that are computed by adjusting the score for each category, if necessary, based on the patient's use of an aid or device or assistance for that category. If either devices and/or help from another person are checked for a category, the score is set to “2”, unless the score is already “3” (i.e., scores of “0” or “1” are increased to “2”). For example, if the highest score for the dressing category is “1”, and the patient says they use a device for dressing, the computed category score would be “2”. The sum of the computed categories scores is then calculated and divided by the number of categories answered. This gives a score in the 0 to 3 range.
The aid and device variables are not used to calculate the alternative disability index; it is calculated by adding the scores for each of the categories and dividing by the number of categories answered. This gives a score in the 0 to 3 range.
The standard, validated, patient reported outcome measures tool for SSc patients, the SHAQ, was collected at the time points specified in the study schedules (FIG. 2 and FIGS. 4A and 4B) to assess the participant's quality of life. The SHAQ included a Raynaud's VAS that will also be reported separately.

[1] = Pooled Cilnidipine 20 mg and Cilnidipine 20 mg + Tadalafil 5 mg (N = 8), PP Population Part A
[2] = Pooled Cilnidipine (N = 8), PP Population Part A
[3] = mITT Part A, SSc patients, cilnidipine 10 mg and/or tadalafil 5 mg as in the arm

SMILES: COCCOC(=O)C1=C(C)NC(C)=C(C(=O)OC/C=C/c2ccccc2)C1c1cccc([N+](=O)[O-])c1 (stereo not shown) [Cilnidipine, cilnidipine]
- SHAQ Visual Analogue Scale - Pain, Change from Baseline, Median [1]: −0.500
- SHAQ Visual Analogue Scale - Pain, Percent Change from Baseline, Mean [1]: −25.85%
- SHAQ Visual Analogue Scale - Pain, Percent Change from Baseline, Median [1]: −48.78%
- SHAQ Visual Analogue Scale - Raynaud's, Change from Baseline, Mean [1]: −1.013
- SHAQ Visual Analogue Scale - Raynaud's, Change from Baseline, Median [1]: −0.650
- SHAQ Visual Analogue Scale - Raynaud's, Percent Change from Baseline, Mean [1]: −32.40%
- SHAQ Visual Analogue Scale - Raynaud's, Percent Change from Baseline, Median [1]: −37.35%
- SHAQ Visual Analogue Scale - Breathing Problems, Change from Baseline, Mean [2]: −0.388
- SHAQ Visual Analogue Scale - Breathing Problems, Change from Baseline, Median [2]: 0.000
- SHAQ Visual Analogue Scale - Breathing Problems, Percent Change from Baseline, Mean [2]: −0.22%
- SHAQ Visual Analogue Scale - Breathing Problems, Percent Change from Baseline, Median [2]: −16.00%
- SHAQ Visual Analogue Scale - Finger Ulcers, Change from Baseline, Mean [2]: −0.643
- SHAQ Visual Analogue Scale - Finger Ulcers, Change from Baseline, Median [2]: 0.000
- SHAQ Visual Analogue Scale - Finger Ulcers, Percent Change from Baseline, Mean [2]: −17.08%
- SHAQ Visual Analogue Scale - Finger Ulcers, Percent Change from Baseline, Median [2]: −50.82%
- SHAQ Visual Analogue Scale - Intestinal Problems, Change from Baseline, Mean [2]: −0.863
- SHAQ Visual Analogue Scale - Intestinal Problems, Change from Baseline, Median [2]: −0.050
- SHAQ Visual Analogue Scale - Intestinal Problems, Percent Change from Baseline, Mean [2]: −43.69%
- SHAQ Visual Analogue Scale - Intestinal Problems, Percent Change from Baseline, Median [2]: −66.06%
- SHAQ Visual Analogue Scale - Overall Disease Severity, Change from Baseline, Mean [2]: −1.450
- SHAQ Visual Analogue Scale - Overall Disease Severity, Change from Baseline, Median [2]: −1.550
- SHAQ Visual Analogue Scale - Overall Disease Severity, Percent Change from Baseline, Mean [2]: −61.10%
- SHAQ Visual Analogue Scale - Overall Disease Severity, Percent Change from Baseline, Median [2]: −60.00%
- SHAQ Visual Analogue Scale - Pain, Change from Baseline, Mean [2]: −0.375
- SHAQ Visual Analogue Scale - Pain, Change from Baseline, Median [2]: −0.250
- SHAQ Visual Analogue Scale - Pain, Percent Change from Baseline, Mean [2]: −23.98%
- SHAQ Visual Analogue Scale - Pain, Percent Change from Baseline, Median [2]: −41.18%
- SHAQ Visual Analogue Scale - Raynaud's, Change from Baseline, Mean [2]: −0.438
- SHAQ Visual Analogue Scale - Raynaud's, Change from Baseline, Median [2]: −0.600
- SHAQ Visual Analogue Scale - Raynaud's, Percent Change from Baseline, Mean [2]: −18.62%
- SHAQ Visual Analogue Scale - Raynaud's, Percent Change from Baseline, Median [2]: −33.33%
- SHAQ Alternative Disability Index, Change from Baseline, Mean [3]: 0.083
- SHAQ Alternative Disability Index, Change from Baseline, Median [3]: 0.000
- SHAQ Alternative Disability Index, In-Clinic Visit (Day 12), Mean [3]: 0.750
- SHAQ Alternative Disability Index, In-Clinic Visit (Day 12), Median [3]: 1.000
- SHAQ Alternative Disability Index, Percent Change from Baseline, Mean [3]: 15.87%
- SHAQ Alternative Disability Index, Percent Change from Baseline, Median [3]: 15.87%
- SHAQ Visual Analogue Scale - Finger Ulcers, Change from Baseline, Mean [3]: −0.567
- SHAQ Visual Analogue Scale - Finger Ulcers, Change from Baseline, Median [3]: −0.700
- SHAQ Visual Analogue Scale - Finger Ulcers, In-Clinic Visit (Day 12), Mean [3]: 0.367
- SHAQ Visual Analogue Scale - Finger Ulcers, In-Clinic Visit (Day 12), Median [3]: 0.000
- SHAQ Visual Analogue Scale - Finger Ulcers, Percent Change from Baseline, Mean [3]: −69.44%
- SHAQ Visual Analogue Scale - Finger Ulcers, Percent Change from Baseline, Median [3]: −69.44%
- SHAQ Visual Analogue Scale - Intestinal Problems, Change from Baseline, Mean [3]: −2.467
- SHAQ Visual Analogue Scale - Intestinal Problems, Change from Baseline, Median [3]: −3.000
- SHAQ Visual Analogue Scale - Intestinal Problems, In-Clinic Visit (Day 12), Mean [3]: 1.467
- SHAQ Visual Analogue Scale - Intestinal Problems, In-Clinic Visit (Day 12), Median [3]: 0.600
- SHAQ Visual Analogue Scale - Intestinal Problems, Percent Change from Baseline, Mean [3]: −66.06%
- SHAQ Visual Analogue Scale - Intestinal Problems, Percent Change from Baseline, Median [3]: −66.06%
- SHAQ Visual Analogue Scale - Overall Disease Severity, Change from Baseline, Mean [3]: −1.067
- SHAQ Visual Analogue Scale - Overall Disease Severity, Change from Baseline, Median [3]: −1.500
- SHAQ Visual Analogue Scale - Overall Disease Severity, In-Clinic Visit (Day 12), Mean [3]: 2.433
- SHAQ Visual Analogue Scale - Overall Disease Severity, In-Clinic Visit (Day 12), Median [3]: 1.900
- SHAQ Visual Analogue Scale - Overall Disease Severity, Percent Change from Baseline, Mean [3]: −35.44%
- SHAQ Visual Analogue Scale - Overall Disease Severity, Percent Change from Baseline, Median [3]: −35.44%
- SHAQ Visual Analogue Scale - Pain, Change from Baseline, Mean [3]: 0.100
- SHAQ Visual Analogue Scale - Pain, Change from Baseline, Median [3]: 0.000
- SHAQ Visual Analogue Scale - Pain, In-Clinic Visit (Day 12), Mean [3]: 2.167
- SHAQ Visual Analogue Scale - Pain, In-Clinic Visit (Day 12), Median [3]: 2.900
- SHAQ Visual Analogue Scale - Pain, Percent Change from Baseline, Mean [3]: 5.77%
- SHAQ Visual Analogue Scale - Pain, Percent Change from Baseline, Median [3]: 5.77%
